Columns and labels:
NaV1.1 = biological target: T1, NaV1.1 (Homo sapiens, UniProt P35498); assay: Patchliner electrophysiological in-vitro assay, NaV1.1; format: cell-based; conditions: Patchliner patch clamp, CHO cells
T1 construct: expressed in transfected cells; host or cells: CHO
Method: (§1) In vitro assays were performed in recombinant cell line that stably express a heterotrimeric protein of interest from an introduced nucleic acid encoding the alpha subunit (hNav1.7, SCN9A), the beta subunit (SCNB1) and the beta subunit (SCNB2). The cell line was engineered using Human Embryonic Kidney 293 cells (HEK293) as host background. Additional cell lines stably expressing recombinant human NaVs (e.g., NaV1.1, NaV1.2, NaV1.3, NaV1.4, NaV1.5, NaV1.6, NaV1.7 or NaV1.8) alpha subunit alone or in combination with various beta subunits in Chinese Hamster Ovary (CHO) or HEK293 cells as a host background can also be used in in vitro assays.
(§2) The recording of sodium current from stable HEK293 cell lines expressing NaV1.7 or NaV1.5 or CHO cell lines expressing NaV1.1, NaV1.2, NaV1.3, NaV1.4, NaV1.6 or NaV1.8 was done on a Patchliner® instrument, Nanion Technologies. […]
(§3) Voltage protocols were designed to establish: 1) peak current amplitude (Imax), 2) test potential (Vmax) and 3) half-inactivation potential (V1/2) for each of the eight individual cells. […] To estimate test compound affinity to the inactivated state of sodium channel (Ki), the holding potential for each cell was set automatically to the V1/2 calculated from a steady-state inactivation data. […] The dose-dependent inhibition was analyzed using Nanion's Data Analysis Package.

NaV1.8 = biological target: T2, NaV1.8 (Homo sapiens, UniProt Q9Y5Y9); assay: Patchliner electrophysiological in-vitro assay, NaV1.8; format: cell-based; conditions: Patchliner patch clamp, CHO cells
T2 construct: expressed in transfected cells; host or cells: CHO
Method: as §1, §2, §3

NaV1.4 = biological target: T3, NaV1.4 (Homo sapiens, UniProt P35499); assay: Patchliner electrophysiological in-vitro assay, NaV1.4; format: cell-based; conditions: Patchliner patch clamp, CHO cells
T3 construct: expressed in transfected cells; host or cells: CHO
Method: as §1, §2, §3

NaV1.3 [1] = biological target: T4, NaV1.3 (Homo sapiens, UniProt Q9NY46); assay: Patchliner electrophysiological in-vitro assay, NaV1.3; format: cell-based; parameters: expressed in transfected cells; host or cells: CHO; conditions: Patchliner patch clamp, CHO cells; read-out: NaV 1.3 IC50
T4 sequence (Q9NY46 whole entry): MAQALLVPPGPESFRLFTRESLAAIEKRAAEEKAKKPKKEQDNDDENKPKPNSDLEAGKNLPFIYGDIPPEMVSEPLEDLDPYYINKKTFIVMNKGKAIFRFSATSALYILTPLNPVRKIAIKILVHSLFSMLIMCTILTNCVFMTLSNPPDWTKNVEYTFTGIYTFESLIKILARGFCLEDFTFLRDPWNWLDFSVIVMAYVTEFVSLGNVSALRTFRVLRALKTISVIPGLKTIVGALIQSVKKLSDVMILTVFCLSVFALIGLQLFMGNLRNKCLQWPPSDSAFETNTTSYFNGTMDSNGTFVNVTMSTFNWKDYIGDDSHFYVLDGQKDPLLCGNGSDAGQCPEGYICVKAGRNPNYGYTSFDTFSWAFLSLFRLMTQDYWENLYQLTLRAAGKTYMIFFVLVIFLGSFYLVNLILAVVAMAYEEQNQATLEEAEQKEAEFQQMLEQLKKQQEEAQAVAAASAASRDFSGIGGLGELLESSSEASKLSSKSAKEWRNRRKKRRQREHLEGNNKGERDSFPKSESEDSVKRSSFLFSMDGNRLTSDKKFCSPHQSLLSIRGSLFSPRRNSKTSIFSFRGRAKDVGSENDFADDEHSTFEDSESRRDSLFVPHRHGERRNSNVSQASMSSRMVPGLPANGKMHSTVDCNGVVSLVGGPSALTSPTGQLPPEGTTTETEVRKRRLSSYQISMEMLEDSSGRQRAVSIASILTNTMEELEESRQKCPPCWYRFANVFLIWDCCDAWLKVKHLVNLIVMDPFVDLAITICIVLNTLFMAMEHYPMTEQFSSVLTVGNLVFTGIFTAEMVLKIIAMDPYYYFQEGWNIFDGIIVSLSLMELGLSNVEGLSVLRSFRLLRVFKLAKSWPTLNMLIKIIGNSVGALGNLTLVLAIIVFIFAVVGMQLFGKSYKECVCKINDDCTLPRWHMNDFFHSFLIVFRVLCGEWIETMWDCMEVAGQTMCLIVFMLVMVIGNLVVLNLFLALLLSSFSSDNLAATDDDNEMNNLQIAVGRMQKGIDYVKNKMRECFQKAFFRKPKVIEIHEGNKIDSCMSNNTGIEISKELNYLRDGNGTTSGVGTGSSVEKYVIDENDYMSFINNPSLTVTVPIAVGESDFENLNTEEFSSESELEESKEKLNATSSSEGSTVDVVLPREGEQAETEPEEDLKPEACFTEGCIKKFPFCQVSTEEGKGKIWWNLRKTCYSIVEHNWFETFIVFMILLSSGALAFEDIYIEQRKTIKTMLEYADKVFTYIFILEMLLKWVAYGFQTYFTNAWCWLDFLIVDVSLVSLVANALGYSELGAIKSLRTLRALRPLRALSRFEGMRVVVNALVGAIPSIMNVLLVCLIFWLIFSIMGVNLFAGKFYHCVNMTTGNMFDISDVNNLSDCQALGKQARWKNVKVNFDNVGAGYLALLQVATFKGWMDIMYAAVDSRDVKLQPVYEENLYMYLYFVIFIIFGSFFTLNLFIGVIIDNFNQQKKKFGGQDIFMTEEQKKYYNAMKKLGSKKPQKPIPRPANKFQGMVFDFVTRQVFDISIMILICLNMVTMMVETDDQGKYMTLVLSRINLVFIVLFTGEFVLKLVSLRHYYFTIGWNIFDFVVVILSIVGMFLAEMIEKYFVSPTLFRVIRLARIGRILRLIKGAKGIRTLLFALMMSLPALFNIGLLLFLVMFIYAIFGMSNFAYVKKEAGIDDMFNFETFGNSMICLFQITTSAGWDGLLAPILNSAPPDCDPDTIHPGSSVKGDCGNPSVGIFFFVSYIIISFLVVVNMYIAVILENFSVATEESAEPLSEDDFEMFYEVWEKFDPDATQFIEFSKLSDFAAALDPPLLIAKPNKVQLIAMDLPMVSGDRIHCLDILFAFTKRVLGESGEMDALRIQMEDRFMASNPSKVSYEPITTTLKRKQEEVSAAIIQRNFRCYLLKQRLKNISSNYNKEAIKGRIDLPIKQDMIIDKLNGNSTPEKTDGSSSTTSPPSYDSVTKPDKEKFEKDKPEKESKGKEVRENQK
Method: as §1, §2, §3

NaV1.5 = biological target: T5, NaV1.5 (Homo sapiens, UniProt Q14524); assay: Patchliner electrophysiological in-vitro assay, NaV1.5; format: cell-based; conditions: Patchliner patch clamp, HEK293 cells
T5 construct: expressed in transfected cells; host or cells: HEK293
T5 sequence (Q14524 whole entry): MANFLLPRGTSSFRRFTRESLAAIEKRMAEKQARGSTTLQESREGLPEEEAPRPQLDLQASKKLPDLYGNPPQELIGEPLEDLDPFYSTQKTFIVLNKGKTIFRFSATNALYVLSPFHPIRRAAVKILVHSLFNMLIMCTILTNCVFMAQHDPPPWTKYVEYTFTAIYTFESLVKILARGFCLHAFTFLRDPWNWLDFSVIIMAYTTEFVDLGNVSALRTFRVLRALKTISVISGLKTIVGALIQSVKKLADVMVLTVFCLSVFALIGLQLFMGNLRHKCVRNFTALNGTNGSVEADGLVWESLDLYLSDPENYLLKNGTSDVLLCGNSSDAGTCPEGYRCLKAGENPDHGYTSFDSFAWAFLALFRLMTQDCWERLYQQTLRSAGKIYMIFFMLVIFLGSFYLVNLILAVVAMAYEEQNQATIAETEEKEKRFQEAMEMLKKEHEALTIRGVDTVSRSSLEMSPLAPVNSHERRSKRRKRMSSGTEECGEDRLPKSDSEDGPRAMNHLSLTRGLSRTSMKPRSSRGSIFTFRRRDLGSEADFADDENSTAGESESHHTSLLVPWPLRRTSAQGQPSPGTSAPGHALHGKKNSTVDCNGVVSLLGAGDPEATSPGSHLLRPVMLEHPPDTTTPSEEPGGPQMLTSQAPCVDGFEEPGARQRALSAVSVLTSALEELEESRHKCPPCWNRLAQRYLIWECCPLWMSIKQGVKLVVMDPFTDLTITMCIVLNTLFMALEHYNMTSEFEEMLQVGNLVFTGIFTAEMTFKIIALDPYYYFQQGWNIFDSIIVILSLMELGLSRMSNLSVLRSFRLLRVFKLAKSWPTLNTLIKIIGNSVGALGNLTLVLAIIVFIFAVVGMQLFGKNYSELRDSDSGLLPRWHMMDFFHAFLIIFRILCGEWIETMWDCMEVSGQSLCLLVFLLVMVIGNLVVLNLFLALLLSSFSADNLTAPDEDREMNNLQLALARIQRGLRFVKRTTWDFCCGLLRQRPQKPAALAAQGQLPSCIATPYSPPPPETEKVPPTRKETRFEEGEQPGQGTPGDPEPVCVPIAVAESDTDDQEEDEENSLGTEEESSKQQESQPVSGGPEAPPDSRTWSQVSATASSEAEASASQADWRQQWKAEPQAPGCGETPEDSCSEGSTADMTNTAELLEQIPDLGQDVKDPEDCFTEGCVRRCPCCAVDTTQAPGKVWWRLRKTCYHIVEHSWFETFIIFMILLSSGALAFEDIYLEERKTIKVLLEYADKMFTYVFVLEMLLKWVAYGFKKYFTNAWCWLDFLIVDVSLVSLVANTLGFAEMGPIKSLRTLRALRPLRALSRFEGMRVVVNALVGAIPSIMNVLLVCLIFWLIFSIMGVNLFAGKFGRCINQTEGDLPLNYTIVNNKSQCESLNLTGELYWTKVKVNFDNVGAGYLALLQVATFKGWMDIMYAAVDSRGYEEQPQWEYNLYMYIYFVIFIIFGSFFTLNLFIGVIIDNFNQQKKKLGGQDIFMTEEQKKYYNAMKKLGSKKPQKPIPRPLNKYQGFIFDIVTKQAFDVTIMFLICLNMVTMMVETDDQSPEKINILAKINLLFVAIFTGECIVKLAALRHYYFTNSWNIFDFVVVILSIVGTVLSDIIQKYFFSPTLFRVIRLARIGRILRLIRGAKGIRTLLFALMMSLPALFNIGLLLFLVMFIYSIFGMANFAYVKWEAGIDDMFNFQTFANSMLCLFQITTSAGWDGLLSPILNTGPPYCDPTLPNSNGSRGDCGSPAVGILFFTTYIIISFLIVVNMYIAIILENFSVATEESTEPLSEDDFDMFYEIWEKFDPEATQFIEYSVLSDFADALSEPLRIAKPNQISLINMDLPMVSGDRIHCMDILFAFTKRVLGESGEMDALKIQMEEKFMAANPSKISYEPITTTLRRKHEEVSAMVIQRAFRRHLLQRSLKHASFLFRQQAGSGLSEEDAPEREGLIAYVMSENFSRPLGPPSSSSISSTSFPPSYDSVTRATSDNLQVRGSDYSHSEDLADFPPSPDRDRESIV
Method: as §1
The recording of sodium current from stable HEK293 cell lines expressing NaV1.7 or NaV1.5 or CHO cell lines expressing NaV1.1, NaV1.2, NaV1.3, NaV1.4, NaV1.6 or NaV1.8 was done on a Patchliner® instrument, Nanion Technologies. The Patchliner® is a fully automated bench-top patch clamp platform and can record simultaneously from up to eight single cells with GΩ seals.
For patch-clamp experiments, cells were grown under standard culturing conditions in Dulbecco's Modified Eagles medium supplemented with 10% fetal bovine serum, glutamine and HEPES. Cells were harvested and kept in suspension for up to 4 hours with no significant change in quality or ability to patch. Whole cell patch clamp recordings were conducted according to Nanion's standard procedure for the Patchliner®. Experiments were conducted at room temperature.
Voltage protocols were designed to establish: 1) peak current amplitude (Imax), 2) test potential (Vmax) and 3) half-inactivation potential (V1/2) for each of the eight individual cells. To determine V1/2, a standard steady-state inactivation protocol was executed using a series of fifteen 500 ms depolarizing pre-pulses in 10 mV increments (starting at −130 mV) and immediately followed by a 10 ms test pulse to Vmax. To estimate test compound affinity to the inactivated state of sodium channel (Ki), the holding potential for each cell was set automatically to the V1/2 calculated from a steady-state inactivation data. The current was activated with the following voltage protocol: holding at V1/2 for 2-5 seconds, return to the −120 mV for 5-10 ms to relieve fast inactivation, stepping to test potential (Vmax) for 10-20 ms. This voltage protocol was repeated every 10 seconds to establish the baseline with 2-3 buffer additions followed by the test compound addition. The dose-dependent inhibition was analyzed using Nanion's Data Analysis Package.

[2] = tested on: streptozotocin-induced diabetic rats; assay: Anti-diabetic effect in rat streptozotocin-induced model for diabetes; format: in vivo, Sprague-Dawley rats; conditions: STZ diabetic rats
Method: 250-350 g male Sprague-Dawley rats from appropriate animal resources were used. Type I diabetes was induced by a single injection, (intraperitoneally, intravenously or intramuscularly) of 50-100 mg/kg of streptozotocin (STZ, Sigma Chemicals, St. Louis, Mo. or VWR) freshly dissolved in sodium citrate (0.01 M, pH 4.5). Sham animals were given either saline or same vehicle injection. Following a wait time of about two days, inducement of diabetes was confirmed in STZ-injected rats by measuring the plasma glucose concentrations in blood samples from the tail vein after a fast of 6 hours. The glucose level was assayed using a mini glucose monitor (kit for AlphaTRAK 2 meter, available from Abbott Laboratories). Screening for hyperglycemia in STZ-injected animals was done, with only animals with a final blood glucose level ≧300 mg/dl being selected for the study. Glucose levels in the sham animals remained normal. Other parameters (water intake, food intake, and bodyweight) were monitored before the treatment with a test compound and after the cessation of the treatment.
The baseline glucose levels, daily food and water intake and behavioral tests (von Frey, paw pressure and plantar tests) were measured for each animal once weekly for 28 weeks, and once every 2-4 weeks for an additional 28-30 weeks. At a selected week (started from week 6) for a compound test, diabetic rats were divided into two test groups: a vehicle control group and a test compound treated group (n=10 each group). A sham group (saline only without STZ i.p. injection, n=10) was added as a normal, non-diabetic control group. To minimize animal stress associated with repeated daily handling, the compound treated diabetic group of animals received the test compound (compound 49) at a daily dose of 60 mg/kg in their drinking water containing 2% PEG600 and 1% glycofurol (the test compound concentration in the drinking water was based on the individual animal's average daily water consumption as determined the pre-dosing period, which averaged 0.1-0.11 mg/ml). The vehicle control group received drinking water containing 2% PEG600 and 1% glycofurol without the test compound. The treatment continued for 9 days. On day 10 drinking water with test compound or vehicle (2% PEG600 and 1% glycofurol) was replaced with plain drinking water in all groups. The monitoring of glucose levels, food and water intake as well as behavior tests continued for additional 28-30 weeks.

NaV1.3 [3] = biological target: T4, NaV1.3; assay: Assay similar to Patchliner assay using CHO or HEK293 cell lines expressing NaV1.3; format: cell-based; parameters: expressed in transfected cells; host or cells: CHO or HEK293
hNaV1.7 = biological target: T6, hNaV1.7 (Homo sapiens, UniProt Q15858); assay: FDSS membrane potential in-vitro assay; format: cell-based; conditions: HEK293 cells expressing hNaV1.7 α, β1 and β2, veratridine and scorpion venom stimulation, read-out: NaV1.7 IC50
T6 construct: expressed in transfected cells; host or cells: HEK293

NaV1.7 = biological target: T7, NaV1.7 (Homo sapiens, UniProt Q15858); assay: Patchliner electrophysiological in-vitro assay, NaV1.7; format: cell-based; conditions: Patchliner patch clamp, HEK293 cells, holding at V1/2
T7 construct: expressed in transfected cells; host or cells: HEK293
Method: as §1, §2, §3

[4] = 60 mg/kg/day in drinking water for 9 days, after treatment stopped, continues through week 52

Work on O=C(O)CCNC(=O)c1cc(-c2cc(Cl)ccc2Oc2cc(F)c(S(=O)(=O)Nc3ncns3)cc2Cl)ccn1 [Compound 1, 3-(4-(2-(4-(N-(1,2,4-thiadiazol-5-yl)sulfamoyl)-2-chloro-5-fluorophenoxy)-5-chlorophenyl)picolinamido)propanoic acid] yielded an IC50 (NaV1.1) greater than 10 µM, an IC50 (NaV1.8) greater than 10 µM and an IC50 (NaV1.4) greater than 3 µM. The IC50 (NaV1.3 [1]) was greater than 10 µM.

Work on O=C(O)CCNCCCc1cc(Cl)ccc1Oc1cc(F)c(S(=O)(=O)Nc2nccs2)cc1F [Compound 43, 3-((3-(5-chloro-2-(2,5-difluoro-4-(N-(thiazol-2-yl)sulfamoyl)phenoxy)phenyl)propyl)amino)propanoic acid] yielded an IC50 (NaV1.5) greater than 10 µM.

Work on CN(CCCc1cc(Cl)ccc1Oc1cc(F)c(S(=O)(=O)Nc2cscn2)cc1Cl)CC(=O)O [Compound 47, 2-((3-(5-chloro-2-(2-chloro-5-fluoro-4-(N-(thiazol-4-yl)sulfamoyl)phenoxy)phenyl)propyl)(methyl)amino)acetic acid] yielded an IC50 (NaV1.5) greater than 10 µM.

NC(=O)CNCCCc1cc(Cl)ccc1Oc1cc(F)c(S(=O)(=O)Nc2cscn2)cc1Cl [Compound 49, 2-((3-(5-chloro-2-(2-chloro-5-fluoro-4-(N-(thiazol-4-yl)sulfamoyl)phenoxy)phenyl)propyl)amino)acetamide] gave an IC50 (NaV1.1) greater than 10 µM, an IC50 (NaV1.8) greater than 10 µM and an IC50 (NaV1.4) greater than 3 µM. The “general appearance and/or health” value ([2]; 60 mg/kg/day for 9 days, after treatment stopped on day 9) was “improvements in general appearance and/or health”, the “food intake compared to the vehicle control group” value [2, 4] was “significantly reduced” and the “glucose level compared to the vehicle control group” value [2, 4] was “significantly reduced”. For the same compound, the “water intake compared to the vehicle control group” value [2, 4] was “significantly reduced” and the IC50 (NaV1.3 [3]) was greater than 10 µM.

C#CCN(CCCc1cc(Cl)ccc1Oc1cc(F)c(S(=O)(=O)Nc2nccs2)cc1Cl)CC(=O)O [Compound 54, 2-((3-(5-chloro-2-(2-chloro-5-fluoro-4-(N-(thiazol-2-yl)sulfamoyl)phenoxy)phenyl)propyl)(prop-2-yn-1-yl)amino)acetic acid] showed an IC50 (hNaV1.7) of less than 0.1 µM, an IC50 (NaV1.7) of less than 0.1 µM and an IC50 (NaV1.5) greater than 10 µM.

Compound CS(=O)(=O)CCNCCCc1cc(Cl)ccc1Oc1cc(F)c(S(=O)(=O)Nc2nccs2)cc1Cl [Compound 59, 5-chloro-4-(4-chloro-2-(3-((2-(methylsulfonyl)ethyl)amino)propyl)phenoxy)-2-fluoro-N-(thiazol-2-yl)benzenesulfonamide] has an IC50 (NaV1.5) greater than 10 µM.

In the case of NC(=O)CNCCCc1ccccc1Oc1cc(F)c(S(=O)(=O)Nc2cscn2)cc1Cl [Compound 60, 2-((3-(2-(2-chloro-5-fluoro-4-(N-(thiazol-4-yl)sulfamoyl)phenoxy)phenyl)propyl)amino)acetamide], the IC50 (NaV1.5) is reported as greater than 10 µM.

C#CCN(CCCc1cc(Cl)ccc1Oc1cc(F)c(S(=O)(=O)Nc2cscn2)cc1Cl)CC(=O)O [Compound 61, 2-((3-(5-chloro-2-(2-chloro-5-fluoro-4-(N-(thiazol-4-yl)sulfamoyl)phenoxy)phenyl)propyl)(prop-2-yn-1-yl)amino)acetic acid] gave an IC50 (NaV1.5) greater than 10 µM.

In the case of C=CCN(CCCc1cc(Cl)ccc1Oc1cc(F)c(S(=O)(=O)Nc2nccs2)cc1Cl)CC(=O)O [Compound 62, 2-(allyl(3-(5-chloro-2-(2-chloro-5-fluoro-4-(N-(thiazol-2-yl)sulfamoyl)phenoxy)phenyl)propyl)amino)acetic acid], the IC50 (NaV1.5) is reported as greater than 10 µM.

With NC(=O)CNCCCc1cc(Cl)ccc1Oc1cc(F)c(S(=O)(=O)Nc2nccs2)cc1Cl [Compound 63, 2-((3-(5-chloro-2-(2-chloro-5-fluoro-4-(N-(thiazol-2-yl)sulfamoyl)phenoxy)phenyl)propyl)amino)acetamide] the IC50 (NaV1.5) was greater than 10 µM.

In the case of CCCN(CCCc1cc(Cl)ccc1Oc1cc(F)c(S(=O)(=O)Nc2nccs2)cc1Cl)CC(=O)O [Compound 65, 2-((3-(5-chloro-2-(2-chloro-5-fluoro-4-(N-(thiazol-2-yl)sulfamoyl)phenoxy)phenyl)propyl)(propyl)amino)acetic acid], the IC50 (NaV1.5) is reported as greater than 10 µM.

For C#CCN(CCCc1cc(Cl)ccc1Oc1cc(F)c(S(=O)(=O)Nc2nccs2)cc1Cl)CCC(=O)O [Compound 66, 3-((3-(5-chloro-2-(2-chloro-5-fluoro-4-(N-(thiazol-2-yl)sulfamoyl)phenoxy)phenyl)propyl)(prop-2-yn-1-yl)amino)propanoic acid], the IC50 (NaV1.5) was greater than 10 µM.
